Here are results for four molecules from paper PMC4257618, “Structures of Plasmodium vivax serine hydroxymethyltransferase: implications for ligand-binding specificity and functional control” (Acta Crystallographica Section D: Biological Crystallography, 2014).

Experiment [1] concerns the target T1, serine hydroxymethyltransferase (PvSHMT) (Plasmodium vivax, UniProt A5K8L9).
T1 construct: gene PVX_100730
T1 sequence (A5K8L9 1-442): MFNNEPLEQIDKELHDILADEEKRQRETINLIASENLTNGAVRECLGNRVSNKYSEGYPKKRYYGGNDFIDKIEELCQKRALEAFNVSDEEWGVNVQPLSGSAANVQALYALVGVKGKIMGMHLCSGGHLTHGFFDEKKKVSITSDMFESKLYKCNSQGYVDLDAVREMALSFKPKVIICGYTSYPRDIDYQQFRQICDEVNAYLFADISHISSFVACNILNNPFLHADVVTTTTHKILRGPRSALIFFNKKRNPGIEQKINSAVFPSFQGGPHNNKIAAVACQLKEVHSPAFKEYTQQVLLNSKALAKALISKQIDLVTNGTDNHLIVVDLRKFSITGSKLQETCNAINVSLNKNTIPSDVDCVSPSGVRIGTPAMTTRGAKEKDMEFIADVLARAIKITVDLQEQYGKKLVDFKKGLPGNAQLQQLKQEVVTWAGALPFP
The experiment is described as follows: SHMT–MTHFD coupled enzyme assay (L-Ser–THF); quinonoid formation with D-Ser by absorbance. Format: biochemical.

Experiment [2] has as its target T1, serine hydroxymethyltransferase (PvSHMT). The experiment is described as follows: X-ray crystal structure at […] Å; also […] inhibition at […] in SHMT–MTHFD coupled assay. Conditions: read-out: % inhibition at 1.55 mM. Format: binding.
The target is the same in experiment [3]. Put plainly: X-ray crystal structure at […] Å. Type of experiment: binding.
The target is the same in experiment [4]. Put plainly: X-ray crystal structure at […] Å. Type of experiment: binding. The source holds these as a separate data set.

SMILES strings stand for the structures.

Consider `Nc1nc(=O)c2c([nH]1)NC[C@H](CNc1ccc(C(=O)N[C@@H](CCC(=O)O)C(=O)O)cc1)N2C=O` [(6S)-5FTHF, (6S)-5-formyltetrahydrofolate], for which, in experiment [1], the Ki stood at 210 µM.

For the molecule `Nc1nc(=O)c2c([nH]1)NC[C@@H](CNc1ccc(C(=O)N[C@@H](CCC(=O)O)C(=O)O)cc1)N2C=O` (racemic) [(6R)-5FTHF, (6R)-5-formyltetrahydrofolate], in experiment [2], the inhibition at 1550 µM came to 30%.

Regarding `N[C@@H](CO)C(=O)O` [L-Ser, L-serine], the “X-ray crystal structure at 2.5 Å” value in experiment [3] is recorded as 4pfn for the PLP–L-Ser external aldimine.

As to `Cc1ncc(COP(=O)(O)O)c(C=O)c1O` [PLP, pyridoxal-5′-phosphate], the “X-ray crystal structure at 2.3 Å” value in experiment [4] is reported as 4pff for the PLP internal aldimine.
